According to US20240197762A1, “NUTRITIONAL COMPOSITION FOR STIMULATIONG BIFIDOBACTERIA” (FrieslandCampina Nederland B.V., priority 2021, published 2024):

System: bifidobacteria (B. adolescentis and B. longum)
Experiment: Fecal fermentations simulating the distal colon of elderly (microMatrix, shotgun metagenomics)
Assay type: cell-based, human (pool of fecal material of healthy 70+ human subjects)
Conditions: oligosaccharides at 0.5 wt % final concentration, 7 hours of fermentation, pH 6.8, 37° C., compared to the blanc; FIG. 1
Description: Fecal fermentations were performed in a 24 well plate using the microMatrix™ (Applikon Biotechnology) as described in M. M. O'Donnell et al., Front. Microbiol., vol. 9, Aug. 10, 2018, article 1844. The wells were filled in the anaerobic chamber with medium (composition: see Table 1) to which the oligosaccharides GOS (Biotis™ GOS ex-FrieslandCampina), 2′-FL (Aequival™ 2′-FL, ex-FrieslandCampina), or mixtures thereof were added at a final concentration of 0 (blanc) or 0.5 wt % (every condition in duplicate). The plate was put in the microMatrix™ for about 20 minutes to reduce the dissolved oxygen concentration to below 5% and to increase the temperature of the medium to 37° C. After these 20 minutes, the plate was inoculated with a pool of fecal material of healthy 70+ human subjects and fermentations were started. During the fermentations, the pH of was controlled at pH 6.8 with a dead zone of 0.1 using ammonium gas and CO2. The plates were orbitally shaken at 300 rpm. Mixed gas (CO2/H2/N2: 10/5/85) was used to keep the cultures anaerobic during fermentation. After 7 hours of fermentation a sample of 1 ml was taken. Fecal samples of eight healthy elderly were included in the pool. […]

**Q.** How did the “relative abundance of B. adolescentis and B. longum and their combined amount, relative to total bacteria content” value turn out when 2′-fucosyllactose [2′-FL] was run?
**A.** The value was “increased”.
